Tests used:
[1] = system: Total ATXN3 (tATXN3) protein; experiment: Endogenous Total ATXN3 (tATXN3) Protein Assay (MSD immunoassay of cell lysates); assay type: cell-based; details: average IC50, total ATXN3 protein in cell lysate after 48 h with compound (Table 1)
Method: Endogenous Total ATXN3 (tATXN3) Protein Assay
Meso Scale Discovery (MSD) 96-well or 384-well plates were coated overnight at 4° C. with Ataxin 3 mouse monoclonal antibody (Invitrogen, MA3-082) at a concentration of 0.5 μg/mL in PBS (30 μL per well). Plates were then washed three times with 300 μL wash buffer (0.05% TWEEN®-20, polyethylene glycol sorbitan monolaurate, in PBS) and blocked (Meso Scale Diagnostics, R93BA-1; 5% BSA in PBS) for 2 h at RT with rotational shaking and then washed three times with wash buffer.
(§1) Test compounds were serially diluted 3.16-fold in 100% DMSO to generate a 7-point concentration curve. Aliquots of 0.5 μL of diluted compounds were transferred to a 96-well flat bottom plate by a liquid handler. An aliquot of 0.5 μL DMSO was also transferred to separate wells and used as controls. Duplicate samples were set up for each compound concentration and for the DMSO control.
Cells were thawed and incubated in cell culture media (DMEM, 10% FBS, and 1% antibiotic cocktail) for 72 h. Cells were trypsinized, counted, and re-suspended to a concentration of 100,000 cells/mL in cell culture media. A 100 μL aliquot of the cell suspensions were plated at 10,000 cells per well in the compound containing 96 well microtiter plate and incubated for in a cell culture incubator (37° C., 5% CO2, 100% relative humidity). After 48 h, the medium was removed and 50-100 μL of lysis buffer (Meso Scale Diagnostics, R60TX-2) containing 1× halt protease inhibitor cocktail of (Thermo Scientific, Halt™ Protease Inhibitor Cocktail, 78430) per well was added to cells to provide a “cell lysate”. The plate was placed on a shaker at 4° C. for 30 minutes, then stored at −80° C.
Cell lysate samples (25 μL) were transferred to the antibody-coated MSD plate and incubated overnight at 4° C. After removal of the lysates, the plate was washed three times with wash buffer, and 25 μL of Ataxin 3 recombinant rabbit monoclonal antibody (Invitrogen, #702788) secondary antibody (diluted to 0.25 μg/mL in 0.05% TWEEN®-20 in blocking buffer) was added to each well and incubated with shaking for 1-2 h at room temperature. Following incubation with the secondary antibody, the wells were rinsed with wash buffer and then 25 μL of Anti Rabbit Antibody Goat SULFO-TAG Labeled (Meso Scale Diagnostics, R32AB-1) detecting antibody (diluted to […] in 0.05% TWEEN®-20 in blocking buffer) was added to each well and incubated with shaking for 1 h at room temperature. After rinsing three times with wash buffer, 150 μL of Read Buffer T with surfactant (tris-based buffer containing tripropylamine, Meso Scale Diagnostics, R92TC-1) were added to each empty well, and the plate was imaged on a SI 6000 imager (MSD) according to manufacturers' instructions provided for 96- or 384-well plates.
(§2) An average IC50>1 μM is indicated by one star (*), between >0.3 μM and ≤1 μM is indicated by two stars (**), between >0.03 μM and ≤0.3 μM is indicated by three stars (***), and ≤0.03 μM is indicated by four stars (****).

ATXN3 pre-mRNA = experiment: RT-qPCR Assay to Quantify Exon 4 Skipping in ATXN3 pre-mRNA in Cells; assay type: cell-based; details: percent exon 4 skipping in ATXN3 pre-mRNA, RT-qPCR of cell lysates; average IC50
Method: RT-qPCR Assay to Quantify Exon 4 Skipping in ATXN3 pre-mRNA in Cells
as §1
Cells were thawed and incubated in cell culture media (DMEM, 10% FBS, and 1% antibiotic cocktail) for 72 h. Cells were trypsinized, counted, and re-suspended to a concentration of 100,000 cells/mL in cell culture media. A 100 μL aliquot of the cell suspensions were plated at 10,000 cells per well in the compound containing 96 well microtiter plate and incubated for in a cell culture incubator (37° C., 5% CO2, 100% relative humidity).
After 24 h, media was aspirated from the cells and 50 μL of the RCL2 lysis buffer (10 mM Tris-HCL pH 7.4, 150 mM NaCl, 0.33% IGEPAL® CA-630) was added to each well and incubated at RT for 1 min. Chilled nuclease free water (50 μL per well) was added and the plates were immediately transferred on ice. After 1 min on ice, plates were frozen at −80° C. overnight.
Preparation of RT-qPCR Reaction Mixture:
An aliquot of 2 μL/well of the cell lysates was transferred using the liquid handler to the Armadillo 384-Well PCR plate containing 8 μL/well of the RT-qPCR reaction mixture that was prepared as detailed above. The plates were then sealed with MicroAmp™ Optical Adhesive Film followed by spinning down for 1 min and placed in the CFX384 thermocycler (BioRad).
The RT-qPCR was carried out at the following temperatures for the indicated time: • Step 1: 48° C. (30 min) • Step 2: 95° C. (10 min) • Step 3: 95° C. (15 sec) • Step 4: 60° C. (1 min); then, repeated Steps 3 and 4 for a total of 40 cycles.
The percent exon 4 skipping was calculated for each dose of compound treatment using Equations 1 and 2.
Data were fit to a dose response curve and the IC50 was interpolated using XLfit® statistical and curve fitting package.
as §2

Substance | IC50 [1] [nM] | IC50 (ATXN3 pre-mRNA) [nM]
2-((2R,3R)-3-aminotetrahydrofuran-2-yl)-3-bromo-5-chloro-N-(thiophen-2-ylmethyl)thieno[3,2-b]pyridin-7-amine and 2-((2S,3S)-3-aminotetrahydrofuran-2-yl)-3-bromo-5-chloro-N-(thiophen-2-ylmethyl)thieno[3,2-b]pyridin-7-amine [Compound 151] | 30 to 300 | 30 to 300
2-((2R,3R,5R)-3-amino-5-methyltetrahydro-2H-pyran-2-yl)-3-bromo-5-chloro-N-(thiophen-2-ylmethyl)thieno[3,2-b]pyridin-7-amine and 2-((2S,3S,5S)-3-amino-5-methyltetrahydro-2H-pyran-2-yl)-3-bromo-5-chloro-N-(thiophen-2-ylmethyl)thieno[3,2-b]pyridin-7-amine [Compound 284] | 30 to 300 | 30 to 300
2-((2R,3S)-3-aminopiperidin-2-yl)-3-bromo-5-chloro-N-(thiophen-2-ylmethyl)thieno[3,2-b]pyridin-7-amine and 2-((2S,3R)-3-aminopiperidin-2-yl)-3-bromo-5-chloro-N-(thiophen-2-ylmethyl)thieno[3,2-b]pyridin-7-amine [Compound 46] | > 1000 | > 1000
2-((2R,3S)-3-aminotetrahydrofuran-2-yl)-3-bromo-5-chloro-N-(thiophen-2-ylmethyl)thieno[3,2-b]pyridin-7-amine and 2-((2S,3R)-3-aminotetrahydrofuran-2-yl)-3-bromo-5-chloro-N-(thiophen-2-ylmethyl)thieno[3,2-b]pyridin-7-amine [Compound 150] | 30 to 300 | 30 to 300
2-((3R,4R)-3-aminotetrahydro-2H-pyran-4-yl)-3-bromo-5-chloro-N-(thiophen-2-ylmethyl)thieno[3,2-b]pyridin-7-amine and 2-((3S,4S)-3-aminotetrahydro-2H-pyran-4-yl)-3-bromo-5-chloro-N-(thiophen-2-ylmethyl)thieno[3,2-b]pyridin-7-amine [Compound 146] | > 1000 | > 1000
2-((3R,4S)-3-aminotetrahydro-2H-pyran-4-yl)-3,5-dichloro-N-(furan-2-ylmethyl)thieno[3,2-b]pyridin-7-amine and 2-((3S,4R)-3-aminotetrahydro-2H-pyran-4-yl)-3,5-dichloro-N-(furan-2-ylmethyl)thieno[3,2-b]pyridin-7-amine [Compound 314] | 30 to 300 | 30 to 300
2-((3R,4S)-3-aminotetrahydro-2H-pyran-4-yl)-3-bromo-5-chloro-N-(furan-2-ylmethyl)thieno[3,2-b]pyridin-7-amine and 2-((3S,4R)-3-aminotetrahydro-2H-pyran-4-yl)-3-bromo-5-chloro-N-(furan-2-ylmethyl)thieno[3,2-b]pyridin-7-amine [Compound 316] | 30 to 300 | 30 to 300
2-((3R,4S)-3-aminotetrahydro-2H-pyran-4-yl)-5-chloro-3-(prop-1-yn-1-yl)-N-(thiophen-2-ylmethyl)thieno[3,2-b]pyridin-7-amine and 2-((3S,4R)-3-aminotetrahydro-2H-pyran-4-yl)-5-chloro-3-(prop-1-yn-1-yl)-N-(thiophen-2-ylmethyl)thieno[3,2-b]pyridin-7-amine [Compound 227] | ≤ 30 | ≤ 30
2-((3R,4S)-3-aminotetrahydro-2H-pyran-4-yl)-5-chloro-3-iodo-N-(thiophen-2-ylmethyl)thieno[3,2-b]pyridin-7-amine and 2-((3S,4R)-3-aminotetrahydro-2H-pyran-4-yl)-5-chloro-3-iodo-N-(thiophen-2-ylmethyl)thieno[3,2-b]pyridin-7-amine [Compound 275] | 30 to 300 | 30 to 300
2-((3R,4S)-3-aminotetrahydro-2H-pyran-4-yl)-5-chloro-7-((thiophen-2-ylmethyl)amino)thieno[3,2-b]pyridine-3-carbonitrile and 2-((3S,4R)-3-aminotetrahydro-2H-pyran-4-yl)-5-chloro-7-((thiophen-2-ylmethyl)amino)thieno[3,2-b]pyridine-3-carbonitrile [Compound 393] | 300 to 1000 | ≤ 30
2-((3R,4S)-3-aminotetrahydro-2H-pyran-4-yl)-5-chloro-N-(thiophen-2-ylmethyl)-3-vinylthieno[3,2-b]pyridin-7-amine and 2-((3S,4R)-3-aminotetrahydro-2H-pyran-4-yl)-5-chloro-N-(thiophen-2-ylmethyl)-3-vinylthieno[3,2-b]pyridin-7-amine [Compound 350] | 30 to 300 | 30 to 300
2-((3R,4S)-3-aminotetrahydro-2H-pyran-4-yl)-N-benzyl-3,5-dichlorothieno[3,2-b]pyridin-7-amine and 2-((3S,4R)-3-aminotetrahydro-2H-pyran-4-yl)-N-benzyl-3,5-dichlorothieno[3,2-b]pyridin-7-amine [Compound 388] | 30 to 300 | 30 to 300
2-((3R,4S)-4-aminotetrahydro-2H-pyran-3-yl)-3-bromo-5-chloro-N-(thiophen-2-ylmethyl)thieno[3,2-b]pyridin-7-amine and 2-((3S,4R)-4-aminotetrahydro-2H-pyran-3-yl)-3-bromo-5-chloro-N-(thiophen-2-ylmethyl)thieno[3,2-b]pyridin-7-amine [Compound 204] | ≤ 30 | ≤ 30
2-((4R,5S)-5-aminoazepan-4-yl)-3-bromo-5-chloro-N-(thiophen-2-ylmethyl)thieno[3,2-b]pyridin-7-amine and 2-((4S,5S)-5-aminoazepan-4-yl)-3-bromo-5-chloro-N-(thiophen-2-ylmethyl)thieno[3,2-b]pyridin-7-amine [Compound 148] | > 1000 | > 1000
3-bromo-5-chloro-2-((1R,2R)-2-(methylamino)cyclohexyl)-N-(thiophen-2-ylmethyl)thieno[3,2-b]pyridin-7-amine and 3-bromo-5-chloro-2-((1S,2S)-2-(methylamino)cyclohexyl)-N-(thiophen-2-ylmethyl)thieno[3,2-b]pyridin-7-amine [Compound 375] | 30 to 300 | 30 to 300
3-bromo-5-chloro-2-[(2R,3S)-3-aminotetrahydropyran-2-yl]-N-(2-thienylmethyl)thieno[3,2-b]pyridin-7-amine and 3-bromo-5-chloro-2-[(2S,3R)-3-aminotetrahydropyran-2-yl]-N-(2-thienylmethyl)thieno[3,2-b]pyridin-7-amine [Compound 20] | 30 to 300 | 30 to 300
